Series [1] in a line: Assay (IV) determination of solubility. Format: physicochemical. How it is done: Assay (IV)—Determination of Solubility
The mimylin peptide was dissolved in water at ˜500 nmol/ml and mixed 1:1 with a series of buffers (100 mM glycylglycine pH 3.0, 100 mM glycylglycine pH 4.0, 100 mM glycylglycine pH 5.0, 100 mM bistrispropane pH 6.0, 100 mM bistrispropane pH 6.5, 100 mM bistrispropane pH 7.0, 100 mM bistrispropane pH 7.5, 100 mM bistrispropane pH 8.0).

The target in series [2] is T1, rat calcitonin receptor (Rattus norvegicus, UniProt P32214).
T1 construct: expressed in transfected cells; host or cells: BHK tk'ts 13 (transient, FuGENE 6)
T1 sequence (P32214 25-479 isoform P32214-2 limits assumed): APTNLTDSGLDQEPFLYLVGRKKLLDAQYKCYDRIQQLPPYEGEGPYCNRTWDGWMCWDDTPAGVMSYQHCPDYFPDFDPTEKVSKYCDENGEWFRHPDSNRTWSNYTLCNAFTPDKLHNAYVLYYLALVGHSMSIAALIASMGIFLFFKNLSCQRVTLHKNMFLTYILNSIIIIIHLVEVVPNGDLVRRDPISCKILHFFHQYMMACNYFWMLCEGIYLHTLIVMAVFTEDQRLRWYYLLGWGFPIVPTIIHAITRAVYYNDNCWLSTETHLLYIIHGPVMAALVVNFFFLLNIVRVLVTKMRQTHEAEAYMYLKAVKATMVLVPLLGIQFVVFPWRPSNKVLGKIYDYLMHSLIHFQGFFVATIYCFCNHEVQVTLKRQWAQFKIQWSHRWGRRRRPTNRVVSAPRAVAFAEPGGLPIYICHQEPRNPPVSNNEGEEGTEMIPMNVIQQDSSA
Briefly: Assay (VIII) binding to the rat calcitonin receptor. The settings on record: membranes; read-out: rCT-R binding IC50. The method in brief:
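Competition binding on membranes from BHK tk'ts 13 cells transiently transfected with rat calcitonin receptor, otherwise run as the human receptor assay. Plates washed in cold HBSS, lysed in 0.1 M NaOH/1% SDS and scintillation-counted. IC50 from one-site competition fit as affinity measure.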

From patent US9593149B2, “Amylin and calcitonin receptor agonist” (Novo Nordisk A/S, priority 2014, dated 2017) come the findings set out here.

By IC50 is commonly meant the concentration that inhibits the measured activity by half. In general, solubility refers to the concentration that dissolves in the medium under given conditions. The low end stands for a poorly soluble substance, the high end for a readily soluble substance.

Molecules are shown by their SMILES. In brackets after ≈: the same amount, converted by molar mass. Numbered stars: 1 amine (or outer) side, 2 acyl side, 3 side chain; on linkers, the order of the positions; unused ones are H or OH. Side chains are listed from the residue outwards. Peptide text beside a SMILES is read from it. * marks the point of attachment. C20 diacid = O=C(O)CCCCCCCCCCCCCCCCCCC(=O)*; γGlu = O=C(O)[C@H](CCC(=O)[*:2])N[*:1]

Take `CC(=O)N[C@@H](C)C(=O)N[C@@H](CO)C(=O)N[C@@H](CCC(=O)O)C(=O)N[C@@H](CC(C)C)C(=O)N[C@@H](CO)C(=O)N[C@H](C(=O)N[C@@H](C)C(=O)N[C@@H](C)C(=O)N[C@@H](CC(C)C)C(=O)NCC(=O)N[C@@H](CCCNC(=N)N)C(=O)N[C@@H](CC(C)C)C(=O)N[C@@H](CO)C(=O)N[C@@H](C)C(=O)N[C@@H](CCC(=O)O)C(=O)N[C@@H](CC(C)C)C(=O)N[C@@H](Cc1cnc[nH]1)C(=O)N[C@@H](CCCCNC(=O)CC[C@H](NC(=O)CCCCCCCCCCCCCCCCCCC(=O)O)C(=O)O)C(=O)N[C@@H](CC(C)C)C(=O)N[C@@H](C)C(=O)N[C@H](C(=O)N[C@@H](CC(C)C)C(=O)N1CCC[C@H]1C(=O)N[C@@H](CCCNC(=N)N)C(=O)N[C@H](C(=O)N[C@@H](CCC(=O)O)C(=O)N[C@H](C(=O)NCC(=O)N[C@@H](CO)C(=O)NCC(=O)N[C@@H](CO)C(=O)N1CCC[C@H]1C(N)=O)[C@@H](C)O)[C@@H](C)O)[C@@H](C)O)[C@@H](C)O` [compound 70, [N-terminal(acetyl), des1, 19K(C20 diacid-gGlu), 30S, 31G]mimylin] (Ac-ASELSTAALGRLSAELHK([γGlu-C20 diacid])LATLPRTETGSGSP-NH2): the Solubility result in series [1] (pH 3.0), in series [1] (pH 4.0), in series [1] (pH 5.0), in series [1] (pH 6.0), in series [1] (pH 6.5) and in series [1] (pH 7.0) was “≧200 μM” in each case. Also, the Solubility result in series [1] (pH 7.5) and in series [1] (pH 8.0) was “≧200 μM” in each case. Moreover, in series [2], the IC50 stood at 0.071 nM.

On to `CC(C)C[C@H](NC(=O)[C@H](C)NC(=O)[C@H](C)NC(=O)[C@@H](NC(=O)[C@H](CO)NC(=O)[C@H](CC(C)C)NC(=O)[C@H](CCC(=O)O)NC(=O)[C@H](CO)NC(=O)[C@H](C)NC(=O)CC[C@H](NC(=O)CCCCCCCCCCCCCCCCCCC(=O)O)C(=O)O)[C@@H](C)O)C(=O)NCC(=O)N[C@@H](Cc1cnc[nH]1)C(=O)N[C@@H](CC(C)C)C(=O)N[C@@H](CO)C(=O)N[C@@H](C)C(=O)N[C@@H](CCC(=O)O)C(=O)N[C@@H](CC(C)C)C(=O)N[C@@H](Cc1cnc[nH]1)C(=O)N[C@@H](CCC(=O)O)C(=O)N[C@@H](CC(C)C)C(=O)N[C@@H](C)C(=O)N[C@H](C(=O)N[C@@H](CC(C)C)C(=O)N1CCC[C@H]1C(=O)N[C@@H](CCCNC(=N)N)C(=O)N[C@H](C(=O)N[C@@H](CCC(=O)O)C(=O)N[C@H](C(=O)NCC(=O)N[C@@H](CO)C(=O)NCC(=O)N[C@@H](CO)C(=O)N1CCC[C@H]1C(N)=O)[C@@H](C)O)[C@@H](C)O)[C@@H](C)O` [compound 72, [N-terminal(C20 diacid-gGlu), des1, 12H, 30S, 31G]mimylin] ({C20 diacid-γGlu}-ASELSTAALGHLSAELHELATLPRTETGSGSP-NH2), for which the Solubility result in series [1] (pH 3.0), in series [1] (pH 4.0), in series [1] (pH 5.0), in series [1] (pH 6.0), in series [1] (pH 6.5) and in series [1] (pH 7.0) was “≧200 μM” in each case. For the same molecule, the Solubility result in series [1] (pH 7.5) and in series [1] (pH 8.0) was “≧200 μM” each time. In series [2], the 50% inhibitory concentration (IC50) was 0.085 nM.

For `CC(C)C[C@H](NC(=O)[C@H](C)NC(=O)[C@H](C)NC(=O)[C@@H](NC(=O)[C@H](CO)NC(=O)[C@H](CC(C)C)NC(=O)[C@H](CCC(=O)O)NC(=O)[C@H](CO)NC(=O)[C@H](C)NC(=O)CC[C@H](NC(=O)CCCCCCCCCCCCCCCCCCC(=O)O)C(=O)O)[C@@H](C)O)C(=O)NCC(=O)N[C@@H](CCCNC(=N)N)C(=O)N[C@@H](CC(C)C)C(=O)N[C@@H](CO)C(=O)N[C@@H](C)C(=O)N[C@@H](CCC(=O)O)C(=O)N[C@@H](CC(C)C)C(=O)N[C@@H](Cc1cnc[nH]1)C(=O)N[C@@H](CCC(=O)O)C(=O)N[C@@H](CC(C)C)C(=O)N[C@@H](C)C(=O)N[C@H](C(=O)N[C@@H](Cc1ccc(O)cc1)C(=O)N1CCC[C@H]1C(=O)N[C@@H](CCCNC(=N)N)C(=O)N[C@H](C(=O)N[C@@H](CCC(=O)O)C(=O)N[C@H](C(=O)NCC(=O)N[C@@H](CO)C(=O)NCC(=O)N[C@@H](C)C(=O)N1CCC[C@H]1C(N)=O)[C@@H](C)O)[C@@H](C)O)[C@@H](C)O` [compound 81, [N-terminal(C20 diacid-gGlu), des1, 23Y, 30S, 31G, 32A]mimylin] ({C20 diacid-γGlu}-ASELSTAALGRLSAELHELATYPRTETGSGAP-NH2), the Solubility result in series [1] (pH 3.0), in series [1] (pH 4.0), in series [1] (pH 5.0), in series [1] (pH 6.0), in series [1] (pH 6.5) and in series [1] (pH 7.0) was “≧200 μM” in each case. Also, the Solubility result in series [1] (pH 7.5) and in series [1] (pH 8.0) was “≧200 μM” in each case. In series [2], the half-maximal inhibitory concentration (IC50) came to 0.039 nM.

Turning to `CC(C)C[C@H](NC(=O)[C@H](CCCNC(=N)N)NC(=O)CNC(=O)[C@H](CC(C)C)NC(=O)[C@@H](NC(=O)[C@H](C)NC(=O)[C@@H](NC(=O)[C@H](CO)NC(=O)[C@H](CC(C)C)NC(=O)[C@H](CCC(=O)O)NC(=O)[C@H](CO)NC(=O)[C@H](C)NC(=O)CC[C@H](NC(=O)CCCCCCCCCCCCCCCCCCC(=O)O)C(=O)O)[C@@H](C)O)[C@@H](C)O)C(=O)N[C@@H](CO)C(=O)N[C@@H](C)C(=O)N[C@@H](CCC(=O)O)C(=O)N[C@@H](CC(C)C)C(=O)N[C@@H](Cc1cnc[nH]1)C(=O)N[C@@H](CCC(=O)O)C(=O)N[C@@H](CC(C)C)C(=O)N[C@@H](CO)C(=O)N[C@H](C(=O)N[C@@H](Cc1ccc(O)cc1)C(=O)N1CCC[C@H]1C(=O)N[C@@H](CCCNC(=N)N)C(=O)N[C@H](C(=O)N[C@@H](CCC(=O)O)C(=O)N[C@H](C(=O)NCC(=O)N[C@@H](CO)C(=O)NCC(=O)N[C@@H](CO)C(=O)N[C@@H](Cc1ccc(O)cc1)C(N)=O)[C@@H](C)O)[C@@H](C)O)[C@@H](C)O` [compound 99, [N-terminal(C20 diacid-gGlu), des1, 9T, 21S, 23Y, 30S, 31G, 33Y]mimylin] ({C20 diacid-γGlu}-ASELSTATLGRLSAELHELSTYPRTETGSGSY-NH2), the Solubility result in series [1] (pH 3.0), in series [1] (pH 4.0), in series [1] (pH 6.0), in series [1] (pH 6.5), in series [1] (pH 7.0) and in series [1] (pH 7.5) was “≧200 μM” each time. In addition, the Solubility result in series [1] (pH 8.0) is reported as “≧200 μM”. This molecule also gave a solubility at 18 h in series [1] (pH 5.0) of 19 µM (≈ 72.9 µg/mL). In series [2], the IC50 was determined as 0.069 nM.

`CC(C)C[C@H](NC(=O)[C@H](CO)NC(=O)[C@H](C)NC(=O)[C@@H](NC(=O)[C@H](CO)NC(=O)[C@H](CC(C)C)NC(=O)[C@H](CCC(=O)O)NC(=O)[C@H](CO)NC(=O)[C@H](C)NC(=O)CC[C@H](NC(=O)CCCCCCCCCCCCCCCCCCC(=O)O)C(=O)O)[C@@H](C)O)C(=O)NCC(=O)N[C@@H](CCCNC(=N)N)C(=O)N[C@@H](CC(C)C)C(=O)N[C@@H](CO)C(=O)N[C@@H](C)C(=O)N[C@@H](CCC(=O)O)C(=O)N[C@@H](CC(C)C)C(=O)N[C@@H](Cc1cnc[nH]1)C(=O)N[C@@H](CCC(=O)O)C(=O)N[C@@H](CC(C)C)C(=O)N[C@@H](CO)C(=O)N[C@H](C(=O)N[C@@H](Cc1ccc(O)cc1)C(=O)N1CCC[C@H]1C(=O)N[C@@H](CCCNC(=N)N)C(=O)N[C@H](C(=O)N[C@@H](CCC(=O)O)C(=O)N[C@H](C(=O)NCC(=O)N[C@@H](CO)C(=O)NCC(=O)N[C@@H](CO)C(=O)N[C@@H](Cc1ccc(O)cc1)C(N)=O)[C@@H](C)O)[C@@H](C)O)[C@@H](C)O` [compound 100, [N-terminal(C20 diacid-gGlu), des1, 9S, 21S, 23Y, 30S, 31G, 33Y]mimylin] ({C20 diacid-γGlu}-ASELSTASLGRLSAELHELSTYPRTETGSGSY-NH2): the Solubility entry in series [1] (pH 3.0), in series [1] (pH 7.0), in series [1] (pH 7.5) and in series [1] (pH 8.0) was “≧200 μM” in each case. For the same molecule, the solubility at 18 h is listed as 1 µM (≈ 3.82 µg/mL) in series [1] (pH 5.0), 63 µM (≈ 241 µg/mL) in series [1] (pH 6.0) and 180 µM (≈ 688 µg/mL) in series [1] (pH 6.5). Also, in series [2], the IC50 is 0.062 nM.
